Source: article PMC3510438, “The transmembrane tyrosines Y56, Y91 and Y167 play important roles in determining the affinity and transport rate of the rabbit proton-coupled peptide transporter PepT1” (The International Journal of Biochemistry & Cell Biology, 2009)
Positions count from the first letter of the chain named. Where a SMILES comes first, the peptide text is derived from it.

Legend:
Assay type in all cases: cell-based, rabbit
Y91Q-rPepT1 = biological target: T1, Y91Q-rPepT1 (Oryctolagus cuniculus, UniProt P36836, Y91Q); assay: Competition of [3H]-D-Phe-L-Gln uptake into Xenopus oocytes, Ki; details: pHout 7.4; against 0.4 μM [3H]-D-Phe-L-Gln uptake
T1 construct: expressed in transfected cells; host or cells: Xenopus laevis oocytes injected with cRNA
T1 sequence (P36836 1-707 Y91Q): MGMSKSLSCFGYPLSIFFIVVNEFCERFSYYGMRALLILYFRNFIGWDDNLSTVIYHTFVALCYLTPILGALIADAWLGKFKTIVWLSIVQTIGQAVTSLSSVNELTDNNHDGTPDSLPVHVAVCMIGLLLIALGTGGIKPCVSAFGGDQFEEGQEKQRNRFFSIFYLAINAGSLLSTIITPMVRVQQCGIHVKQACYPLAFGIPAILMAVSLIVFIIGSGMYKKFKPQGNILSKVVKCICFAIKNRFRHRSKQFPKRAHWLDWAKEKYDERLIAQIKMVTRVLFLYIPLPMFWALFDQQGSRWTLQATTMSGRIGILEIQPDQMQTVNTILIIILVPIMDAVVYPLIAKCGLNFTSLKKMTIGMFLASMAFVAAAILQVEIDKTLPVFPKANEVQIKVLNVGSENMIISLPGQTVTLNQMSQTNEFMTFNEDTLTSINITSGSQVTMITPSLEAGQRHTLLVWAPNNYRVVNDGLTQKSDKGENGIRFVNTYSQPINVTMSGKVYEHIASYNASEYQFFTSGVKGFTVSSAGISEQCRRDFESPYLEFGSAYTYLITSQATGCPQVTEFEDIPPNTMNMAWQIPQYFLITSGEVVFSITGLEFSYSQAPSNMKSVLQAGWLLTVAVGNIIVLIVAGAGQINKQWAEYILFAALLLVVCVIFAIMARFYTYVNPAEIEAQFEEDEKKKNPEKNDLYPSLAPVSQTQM
Description: (§1) rPepT1 constructs were linearised with XbaI (New England Biolabs, UK) and cRNA generated by in vitro transcription (T7 mMessage mMachine, Ambion, Cambridgeshire, UK). Xenopus laevis oocytes were obtained under MS222 anaesthesia (0.2%, w/v) in accordance with the UK Animals (Scientific Procedures) Act, 1986, and maintained at 18 °C in modified Barth's medium (88 mM NaCl, 1 mM KCl, 0.82 mM MgSO4, 2.4 mM NaHCO3, 0.42 mM CaCl2, 10 mM Hepes, 5 mM sodium pyruvate, 50 μg ml^−1 gentamicin (Fluka, Poole, UK), adjusted to pH 7.6 with 1 M NaOH). Transport measurements were performed at least 72 h after micro-injection of oocytes with 27nl cRNA (1 μg/μl), with medium changed daily.
(§2) Uptake of [^3H]-D-Phe-L-Gln (17.4 Ci/mmole, custom synthesised, Cambridge Research Biochemicals, Stockton-on-Tees, UK) was performed as previously described ([Meredith, 2004]). Briefly, 5 oocytes were incubated in 100 μl of uptake medium (95 mM NaCl, 2 mM KCl, 1 mM CaCl2, 0.42 mM MgCl2, 10 mM Tris/Hepes pH 7.4 or Tris/Mes pH 5.5) with tracer (0.4 μM) [^3H]-D-Phe-L-Gln. After incubation, the oocytes were washed sequentially five times in 1 ml of ice-cold 120 mM NaCl solution, lysed individually with 100 μl 2% (w/v) SDS and liquid scintillation counted. As a control non-injected oocytes were also incubated in uptake medium with D-Phe-L-Gln as above.
The affinity of wild-type and mutant rPepT1 transporters were assessed by competition studies with 0.4 μM [^3H]-D-Phe-L-Gln and Gly-L-Gln present in the uptake medium in concentrations from 0 to 2 mM using the protocol above, and the Ki calculated using the method of [Deves and Boyd (1989)].

Y167R-rPepT1 = biological target: T2, Y167R-rPepT1 (Oryctolagus cuniculus, UniProt P36836, Y167R); assay: Uptake of tracer [3H]-D-Phe-L-Gln into Xenopus oocytes; details: both pHout 5.5 and 7.4
T2 construct: expressed in transfected cells; host or cells: Xenopus laevis oocytes injected with cRNA
T2 sequence (P36836 1-707 Y167R): T1 sequence (P36836 1-707 Y91Q) with Q91Y, Y167R
Description: as §1, §2

T58Y-rPepT1 = biological target: T3, T58Y-rPepT1 (Oryctolagus cuniculus, UniProt P36836, T58Y); assay: as above; details: both pHout 5.5 and 7.4
T3 construct: expressed in transfected cells; host or cells: Xenopus laevis oocytes injected with cRNA
T3 sequence (P36836 1-707 T58Y): T1 sequence (P36836 1-707 Y91Q) with T58Y, Q91Y
Description: as §1, §2

Ki (Y91Q-rPepT1) [µM]	reduction of uptake compared to the wild-type (Y167R-rPepT1) [%]	reduction of transport function compared to the wild-type (T58Y-rPepT1) [%]	Molecule
30 ± 5			NCC(=O)N[C@@H](CCC(N)=O)C(=O)O [Gly-L-Gln] (H-Gly-Gln-OH)
	> 90	> 70	[^3H]-D-Phe-L-Gln
